Measurements as given in PubChem BioAssay AID248 (DTP/NCI, 2004).
Where “and” joins values, the source holds several entries; their conditions need not be identical. Equal entries are not always repeated. Inconclusive results and toxic doses are left out.

Tested on: L1210 leukemia ip in BDF1 mice, survival T/C
Experiment: NCI In Vivo Anticancer Drug Screen. Data for tumor model L1210 Leukemia (intraperitoneal) in B6D2F1 (BDF1) mice
Settings: higher = longer survival
Outline: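 Tumor cells were implanted, animals were treated, and survival was followed. The result divides the treated measurement by the vehicle-control measurement.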

N=c1ccn2c(n1)OC1C(O)C(CO)OC12 (stereo not drawn)
T/C (endpoint: mean survival time, dose: 0.79 mg/kg/injection, schedule: Q03HX024 (ip), vehicle: water): 110 % of control
T/C (endpoint: mean survival time, dose: 1.56 mg/kg/injection, schedule: Q01DX009 (ip), vehicle: water): 103 % of control
T/C (endpoint: mean survival time, dose: 3.13 mg/kg/injection, schedule: Q01DX009 (ip), vehicle: water): 110 % of control
T/C (endpoint: mean survival time, dose: 100.0 mg/kg/injection, schedule: Q04DX003 (ip), vehicle: water): 169 % of control
T/C (endpoint: mean survival time, dose: 118.0 mg/kg/injection, schedule: Q01DX009 (ip), vehicle: clinical formulation): 203 % of control
T/C (endpoint: mean survival time, dose: 118.0 mg/kg/injection, schedule: Q01DX009 (ip), vehicle: saline): 195 % of control
T/C (endpoint: mean survival time, dose: 177.0 mg/kg/injection, schedule: Q01DX009 (ip), vehicle: clinical formulation): 213 % of control
T/C (endpoint: mean survival time, dose: 177.0 mg/kg/injection, schedule: Q01DX009 (ip), vehicle: saline): 230 % of control
T/C (endpoint: mean survival time, dose: 200.0 mg/kg/injection, schedule: Q04DX003 (ip), vehicle: water): 180 % of control
T/C (endpoint: mean survival time, dose: 266.0 mg/kg/injection, schedule: Q01DX009 (ip), vehicle: clinical formulation): 250 % of control
T/C (endpoint: mean survival time, dose: 266.0 mg/kg/injection, schedule: Q01DX009 (ip), vehicle: saline): 258 % of control
T/C (endpoint: mean survival time, dose: 400.0 mg/kg/injection, schedule: Q01DX009 (ip), vehicle: clinical formulation): 254 % of control
T/C (endpoint: mean survival time, dose: 400.0 mg/kg/injection, schedule: Q01DX009 (ip), vehicle: saline): 246 % of control
T/C (endpoint: mean survival time, dose: 400.0 mg/kg/injection, schedule: Q04DX003 (ip), vehicle: water): 215 % of control
T/C (endpoint: mean survival time, dose: 600.0 mg/kg/injection, schedule: Q01DX009 (ip), vehicle: clinical formulation): 101 % of control
T/C (endpoint: mean survival time, dose: 1200.0 mg/kg/injection, schedule: Q01DX001 (ip), vehicle: saline): 158 % of control
T/C (endpoint: mean survival time, dose: 1600.0 mg/kg/injection, schedule: Q01DX001 (ip), vehicle: saline): 154 % of control and 161 % of control and 166 % of control
T/C (endpoint: mean survival time, dose: 2000.0 mg/kg/injection, schedule: Q01DX001 (ip), vehicle: saline): 161 % of control and 170 % of control and 172 % of control
T/C (endpoint: median survival time, dose: 5.0 mg/kg/injection, schedule: Q03HX008 (ip), vehicle: saline): 161 % of control
T/C (endpoint: median survival time, dose: 12.5 mg/kg/injection, schedule: Q01DX009 (ip), vehicle: saline): 157 % of control
T/C (endpoint: median survival time, dose: 25.0 mg/kg/injection, schedule: Q01DX009 (ip), vehicle: saline): 178 % of control
T/C (endpoint: median survival time, dose: 25.0 mg/kg/injection, schedule: Q03HX024 (ip), vehicle: water): 170 % of control and 250 % of control
T/C (endpoint: median survival time, dose: 50.0 mg/kg/injection, schedule: Q01DX009 (ip), vehicle: saline): 184 % of control
T/C (endpoint: median survival time, dose: 50.0 mg/kg/injection, schedule: Q01DX009 (ip), vehicle: steriod suspending solution): 170 % of control
T/C (endpoint: median survival time, dose: 50.0 mg/kg/injection, schedule: Q03HX016 (ip), vehicle: saline): 211 % of control
T/C (endpoint: median survival time, dose: 50.0 mg/kg/injection, schedule: Q03HX024 (ip), vehicle: saline): 255 % of control
T/C (endpoint: median survival time, dose: 50.0 mg/kg/injection, schedule: Q03HX024 (ip), vehicle: water): 205 % of control and 230 % of control
T/C (endpoint: median survival time, dose: 100.0 mg/kg/injection, schedule: Q01DX009 (ip), vehicle: saline): 190 % of control and 205 % of control
T/C (endpoint: median survival time, dose: 100.0 mg/kg/injection, schedule: Q01DX009 (ip), vehicle: steriod suspending solution): 185 % of control
T/C (endpoint: median survival time, dose: 100.0 mg/kg/injection, schedule: Q01DX009 (oral), vehicle: saline): 166 % of control
T/C (endpoint: median survival time, dose: 100.0 mg/kg/injection, schedule: Q03HX008 (ip), vehicle: saline): 155 % of control
T/C (endpoint: median survival time, dose: 100.0 mg/kg/injection, schedule: Q03HX016 (ip), vehicle: saline): 233 % of control
T/C (endpoint: median survival time, dose: 100.0 mg/kg/injection, schedule: Q03HX024 (ip), vehicle: saline): 322 % of control
T/C (endpoint: median survival time, dose: 100.0 mg/kg/injection, schedule: Q03HX024 (ip), vehicle: water): 250 % of control and 270 % of control
T/C (endpoint: median survival time, dose: 100.0 mg/kg/injection, schedule: Q04DX003 (oral), vehicle: water): 111 % of control
T/C (endpoint: median survival time, dose: 108.0 mg/kg/injection, schedule: Q01DX008 (ip), vehicle: water): 179 % of control
T/C (endpoint: median survival time, dose: 120.0 mg/kg/injection, schedule: Q01DX001 (ip), vehicle: water): 166 % of control
T/C (endpoint: median survival time, dose: 160.0 mg/kg/injection, schedule: Q01DX001 (ip), vehicle: water): 166 % of control
T/C (endpoint: median survival time, dose: 180.0 mg/kg/injection, schedule: Q01DX008 (ip), vehicle: water): 182 % of control
T/C (endpoint: median survival time, dose: 200.0 mg/kg/injection, schedule: Q01DX001 (ip), vehicle: saline): 122 % of control
T/C (endpoint: median survival time, dose: 200.0 mg/kg/injection, schedule: Q01DX001 (ip), vehicle: water): 105 % of control
T/C (endpoint: median survival time, dose: 200.0 mg/kg/injection, schedule: Q01DX009 (ip), vehicle: saline): 219 % of control and 222 % of control and 234 % of control
T/C (endpoint: median survival time, dose: 200.0 mg/kg/injection, schedule: Q01DX009 (ip), vehicle: steriod suspending solution): 235 % of control
T/C (endpoint: median survival time, dose: 200.0 mg/kg/injection, schedule: Q01DX009 (oral), vehicle: saline): 188 % of control
T/C (endpoint: median survival time, dose: 200.0 mg/kg/injection, schedule: Q03HX008 (ip), vehicle: saline): 177 % of control
T/C (endpoint: median survival time, dose: 200.0 mg/kg/injection, schedule: Q03HX016 (ip), vehicle: saline): 255 % of control
T/C (endpoint: median survival time, dose: 200.0 mg/kg/injection, schedule: Q03HX024 (oral), vehicle: water): 116 % of control
T/C (endpoint: median survival time, dose: 200.0 mg/kg/injection, schedule: Q04DX003 (ip), vehicle: saline): 177 % of control
T/C (endpoint: median survival time, dose: 200.0 mg/kg/injection, schedule: Q04DX003 (ip), vehicle: water): 160 % of control
T/C (endpoint: median survival time, dose: 216.0 mg/kg/injection, schedule: Q01DX009 (ip), vehicle: water): 100 % of control and 105 % of control
T/C (endpoint: median survival time, dose: 300.0 mg/kg/injection, schedule: Q01DX008 (ip), vehicle: water): 202 % of control
T/C (endpoint: median survival time, dose: 300.0 mg/kg/injection, schedule: Q01DX009 (ip), vehicle: saline): 221 % of control
T/C (endpoint: median survival time, dose: 360.0 mg/kg/injection, schedule: Q01DX009 (ip), vehicle: water): 104 % of control and 111 % of control
T/C (endpoint: median survival time, dose: 400.0 mg/kg/injection, schedule: Q01DX001 (ip), vehicle: water): 100 % of control
T/C (endpoint: median survival time, dose: 400.0 mg/kg/injection, schedule: Q01DX001 (oral), vehicle: water): 120 % of control
T/C (endpoint: median survival time, dose: 400.0 mg/kg/injection, schedule: Q01DX009 (ip), vehicle: saline): 223 % of control and 262 % of control and 311 % of control
T/C (endpoint: median survival time, dose: 400.0 mg/kg/injection, schedule: Q01DX009 (ip), vehicle: steriod suspending solution): 315 % of control
T/C (endpoint: median survival time, dose: 400.0 mg/kg/injection, schedule: Q01DX009 (oral), vehicle: saline): 205 % of control
T/C (endpoint: median survival time, dose: 400.0 mg/kg/injection, schedule: Q03HX008 (ip), vehicle: saline): 188 % of control
T/C (endpoint: median survival time, dose: 400.0 mg/kg/injection, schedule: Q03HX024 (ip), vehicle: saline): 88 % of control
T/C (endpoint: median survival time, dose: 400.0 mg/kg/injection, schedule: Q03HX024 (ip), vehicle: water): 100 % of control
T/C (endpoint: median survival time, dose: 400.0 mg/kg/injection, schedule: Q04DX003 (ip), vehicle: saline): 150 % of control
T/C (endpoint: median survival time, dose: 400.0 mg/kg/injection, schedule: Q04DX003 (ip), vehicle: water): 165 % of control
T/C (endpoint: median survival time, dose: 500.0 mg/kg/injection, schedule: Q01DX008 (ip), vehicle: water): 164 % of control
T/C (endpoint: median survival time, dose: 500.0 mg/kg/injection, schedule: Q01DX009 (ip), vehicle: saline): 211 % of control
T/C (endpoint: median survival time, dose: 600.0 mg/kg/injection, schedule: Q01DX009 (ip), vehicle: saline): 232 % of control
T/C (endpoint: median survival time, dose: 700.0 mg/kg/injection, schedule: Q01DX009 (ip), vehicle: saline): 156 % of control
T/C (endpoint: median survival time, dose: 800.0 mg/kg/injection, schedule: Q01DX001 (ip), vehicle: water): 120 % of control
T/C (endpoint: median survival time, dose: 800.0 mg/kg/injection, schedule: Q01DX009 (ip), vehicle: saline): 94 % of control
T/C (endpoint: median survival time, dose: 800.0 mg/kg/injection, schedule: Q01DX009 (oral), vehicle: saline): 122 % of control
T/C (endpoint: median survival time, dose: 800.0 mg/kg/injection, schedule: Q01DX009 (oral), vehicle: water): 94 % of control
T/C (endpoint: median survival time, dose: 800.0 mg/kg/injection, schedule: Q04DX003 (ip), vehicle: water): 200 % of control
T/C (endpoint: median survival time, dose: 800.0 mg/kg/injection, schedule: Q04DX003 (oral), vehicle: saline): 166 % of control
T/C (endpoint: median survival time, dose: 1600.0 mg/kg/injection, schedule: Q01DX001 (ip), vehicle: saline): 155 % of control
T/C (endpoint: median survival time, dose: 1600.0 mg/kg/injection, schedule: Q01DX001 (ip), vehicle: water): 155 % of control
T/C (endpoint: median survival time, dose: 1600.0 mg/kg/injection, schedule: Q04DX003 (ip), vehicle: water): 100 % of control
T/C (endpoint: median survival time, dose: 1600.0 mg/kg/injection, schedule: Q04DX003 (oral), vehicle: saline): 244 % of control
T/C (endpoint: median survival time, dose: 2000.0 mg/kg/injection, schedule: Q01DX001 (oral), vehicle: water): 150 % of control

O=C(Nc1ccccc1)C(Cl)S(=O)(=O)O (stereo not drawn)
T/C (endpoint: mean survival time, dose: 100.0 mg/kg/injection, schedule: Q01DX001 (ip), vehicle: saline with Tween-80): 97 % of control
T/C (endpoint: mean survival time, dose: 200.0 mg/kg/injection, schedule: Q01DX001 (ip), vehicle: saline with Tween-80): 97 % of control

CCc1ccccc1NC(=O)Nc1ccc(S(N)(=O)=O)cc1
T/C (endpoint: mean survival time, dose: 100.0 mg/kg/injection, schedule: Q01DX009 (ip), vehicle: Klucel (hydroxypropylcellulose) (HPC)): 98 % of control
T/C (endpoint: mean survival time, dose: 200.0 mg/kg/injection, schedule: Q01DX009 (ip), vehicle: Klucel (hydroxypropylcellulose) (HPC)): 97 % of control
T/C (endpoint: mean survival time, dose: 400.0 mg/kg/injection, schedule: Q01DX009 (ip), vehicle: Klucel (hydroxypropylcellulose) (HPC)): 103 % of control
